IC50 and cytotoxicity data for 20 compounds are collected here from ChEMBL document CHEMBL3875146, “Mycobacterium Tuberculosis (MTB) GyrB inhibitors: An attractive approach for developing novel drugs against TB” (Eur J Med Chem, 2016).

By IC50 is commonly meant the concentration that inhibits the measured activity by half.

One data set deals with DNA gyrase subunit B (Mycobacterium smegmatis, UniProt P0C559). Put plainly: Inhibition of Mycobacterium smegmatis DNA gyrase B expressed in BL21(DE3)pLysS cells assessed as inhibition of […] activity in presence of ATP measured after 30 mins by malachite green dye based assay. The format is cell-based, Mycolicibacterium smegmatis.
Chain of DNA gyrase subunit B (P0C559 whole entry): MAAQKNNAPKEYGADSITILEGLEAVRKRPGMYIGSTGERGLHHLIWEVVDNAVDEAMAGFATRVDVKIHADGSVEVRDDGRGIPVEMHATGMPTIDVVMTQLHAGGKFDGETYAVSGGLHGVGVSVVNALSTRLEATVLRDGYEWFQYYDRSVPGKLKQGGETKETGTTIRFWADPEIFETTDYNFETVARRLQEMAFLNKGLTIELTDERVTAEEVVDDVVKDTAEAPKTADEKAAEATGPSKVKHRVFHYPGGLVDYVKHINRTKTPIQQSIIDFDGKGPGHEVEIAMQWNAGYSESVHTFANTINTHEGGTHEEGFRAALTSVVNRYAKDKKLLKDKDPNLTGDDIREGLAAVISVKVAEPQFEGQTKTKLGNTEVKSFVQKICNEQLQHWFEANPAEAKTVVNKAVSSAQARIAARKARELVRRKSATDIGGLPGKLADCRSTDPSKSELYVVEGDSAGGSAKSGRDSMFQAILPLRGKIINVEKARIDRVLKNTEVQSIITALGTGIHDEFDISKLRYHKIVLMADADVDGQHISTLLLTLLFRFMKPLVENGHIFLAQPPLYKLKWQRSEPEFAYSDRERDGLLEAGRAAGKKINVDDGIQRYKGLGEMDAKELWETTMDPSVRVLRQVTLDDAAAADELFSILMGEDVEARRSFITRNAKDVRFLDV
Data set [1] in a line: Cytotoxicity against mouse RAW264.7 cells assessed as inhibition of cell viability at 100 uM measured after 72 hrs by MTT assay relative to control. The format is toxicity. The conditions noted are these: read-out: INH. Background: Tetrazolium assays rely on reduction of a dye to a coloured formazan, in cell work by metabolically active cells.
The target of data set [2] is DNA gyrase subunit A/DNA gyrase subunit B (Mycobacterium tuberculosis (strain ATCC 25618 / H37Rv), UniProt P9WG45+P9WG47). The data set is described as follows: Inhibition of Mycobacterium tuberculosis DNA gyrase assessed as inhibition of DNA supercoiling activity using relaxed pBR322 as substrate incubated for 30 mins by ethidium bromide staining based agarose gel electrophoresis.
Chain of DNA gyrase subunit A/DNA gyrase subunit B (P9WG45 whole entry): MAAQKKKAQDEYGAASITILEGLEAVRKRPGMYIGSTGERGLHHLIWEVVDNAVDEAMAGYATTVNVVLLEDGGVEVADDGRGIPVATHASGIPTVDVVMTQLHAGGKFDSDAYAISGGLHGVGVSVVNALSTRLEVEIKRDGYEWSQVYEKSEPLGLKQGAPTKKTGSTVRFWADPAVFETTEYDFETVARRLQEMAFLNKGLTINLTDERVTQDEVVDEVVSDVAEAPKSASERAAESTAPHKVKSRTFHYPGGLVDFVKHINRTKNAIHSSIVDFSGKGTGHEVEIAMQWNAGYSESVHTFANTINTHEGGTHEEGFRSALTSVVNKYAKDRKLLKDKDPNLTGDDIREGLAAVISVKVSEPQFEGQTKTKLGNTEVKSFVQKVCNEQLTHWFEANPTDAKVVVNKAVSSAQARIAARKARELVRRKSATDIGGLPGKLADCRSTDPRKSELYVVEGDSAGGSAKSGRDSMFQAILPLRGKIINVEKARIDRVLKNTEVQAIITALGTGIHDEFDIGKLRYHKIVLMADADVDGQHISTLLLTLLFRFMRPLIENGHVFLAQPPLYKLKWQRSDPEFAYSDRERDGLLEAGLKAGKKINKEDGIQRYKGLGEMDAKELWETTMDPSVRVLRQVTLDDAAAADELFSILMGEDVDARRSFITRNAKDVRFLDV
Chain of DNA gyrase subunit A/DNA gyrase subunit B (P9WG47 whole entry): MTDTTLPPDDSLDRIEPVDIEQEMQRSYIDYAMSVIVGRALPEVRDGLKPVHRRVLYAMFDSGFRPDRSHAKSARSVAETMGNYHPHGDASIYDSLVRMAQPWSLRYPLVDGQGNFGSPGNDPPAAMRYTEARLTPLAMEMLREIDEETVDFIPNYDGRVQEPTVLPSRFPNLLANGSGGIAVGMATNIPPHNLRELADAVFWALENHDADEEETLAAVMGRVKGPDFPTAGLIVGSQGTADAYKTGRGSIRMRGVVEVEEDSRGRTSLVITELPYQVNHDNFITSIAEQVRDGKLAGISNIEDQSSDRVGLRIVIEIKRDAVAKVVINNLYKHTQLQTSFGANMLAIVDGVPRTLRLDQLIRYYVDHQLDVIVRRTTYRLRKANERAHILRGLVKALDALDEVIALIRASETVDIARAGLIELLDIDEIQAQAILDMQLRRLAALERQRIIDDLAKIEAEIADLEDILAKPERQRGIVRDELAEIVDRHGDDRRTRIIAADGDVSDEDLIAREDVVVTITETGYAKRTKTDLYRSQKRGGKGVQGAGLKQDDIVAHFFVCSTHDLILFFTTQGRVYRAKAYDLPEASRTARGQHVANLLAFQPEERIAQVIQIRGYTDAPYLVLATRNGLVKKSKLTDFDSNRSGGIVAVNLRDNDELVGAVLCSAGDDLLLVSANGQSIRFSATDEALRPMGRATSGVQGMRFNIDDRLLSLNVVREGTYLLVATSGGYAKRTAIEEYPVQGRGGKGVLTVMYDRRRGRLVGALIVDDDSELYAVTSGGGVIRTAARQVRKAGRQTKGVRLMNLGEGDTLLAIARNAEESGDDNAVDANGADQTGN

Molecules are shown by their SMILES.

In the case of `O=C1C(=O)N(CCN2CCN(NCc3ccc([N+](=O)[O-])o3)CC2)c2ccc(Cl)cc21`, the figures for the half-inhibitory concentration (IC50) (at DNA gyrase subunit B; in data set [2]) were 47.5 µM and 23.9 µM, respectively. Moreover, the cytotoxicity at 72 h, 100 µM in data set [1] was 34.2%.
As to `O=C1C(=O)N(CCN2CCN(NCc3ccccc3OCc3ccccc3)CC2)c2ccccc21`, the values for the half-maximal inhibitory concentration (IC50) (on DNA gyrase subunit B; in data set [2]) were 26.6 µM and 10 µM, respectively. Besides, the cytotoxicity at 72 h, 100 µM in data set [1] stood at 13.9%.
In the case of `O=C1C(=O)N(CCN2CCN(NCc3ccccc3C(F)(F)F)CC2)c2ccc(Cl)cc21`, the figures for the IC50 (at DNA gyrase subunit B; in data set [2]) were 22.1 µM and 4.9 µM, respectively. The cytotoxicity at 72 h, 100 µM in data set [1] turned out to be 16.4%.
On to `COc1ccccc1CNN1CCN(CCN2C(=O)C(=O)c3cc(Cl)ccc32)CC1`, for which the figures for the IC50 (on DNA gyrase subunit B; in data set [2]) were 76 µM and 50 µM, respectively. Further, the cytotoxicity at 72 h, 100 µM in data set [1] is 24%.
As for `COc1ccccc1CNN1CCN(CCN2C(=O)C(=O)c3cc(C)ccc32)CC1`, the IC50 on DNA gyrase subunit B was 14.1 µM; in data set [2], 5 µM. Besides, in data set [1], the cytotoxicity at 72 h, 100 µM was found to be 9.42%.
For `COc1ccc2c(c1)C(=O)C(=O)N2CCN1CCN(NCc2ccc(Cl)cc2Cl)CC1`, the results for the IC50 (on DNA gyrase subunit B; in data set [2]) were 15.8 µM and 4.1 µM, respectively. Moreover, the cytotoxicity at 72 h, 100 µM in data set [1] was determined as 26.4%.
For the compound `O=C1C(=O)N(CCN2CCN(NCc3ccccc3F)CC2)c2ccc(F)cc21`, the IC50 amounted to 20.3 µM on DNA gyrase subunit B and 4.2 µM in data set [2]. Moreover, the cytotoxicity at 72 h, 100 µM in data set [1] was determined as 22.1%.
For `O=C1C(=O)N(CCN2CCN(NCc3ccc([N+](=O)[O-])o3)CC2)c2ccccc21`, in that order: 20.2 µM, 4.6 µM and 30.6%.
For `O=C1C(=O)N(CCN2CCN(NCc3cccc(Cl)c3Cl)CC2)c2ccccc21`, the concentration for half-maximal inhibition (IC50) stood at 21.7 µM on DNA gyrase subunit B and 4.8 µM in data set [2]. Moreover, the cytotoxicity at 72 h, 100 µM in data set [1] stood at 16.8%.
`O=C1C(=O)N(CCN2CCN(NCc3ccccc3C(F)(F)F)CC2)c2ccccc21`: the figures for the IC50 (at DNA gyrase subunit B; in data set [2]) were 51 µM and 25 µM, respectively. The cytotoxicity at 72 h, 100 µM in data set [1] amounted to 4.2%.
For `O=C1C(=O)N(CCN2CCN(NCc3ccccc3OCc3ccccc3)CC2)c2ccc(F)cc21`, in that order: 70.1 µM, 42.3 µM and 11.7%.
Consider `Cc1ccc2c(c1)C(=O)C(=O)N2CCN1CCN(NCc2cccc(Cl)c2Cl)CC1`, for which the half-maximal inhibitory concentration (IC50) on DNA gyrase subunit B is 53.6 µM; in data set [2], 43.1 µM. The cytotoxicity at 72 h, 100 µM in data set [1] stood at 27.8%.
`O=C1C(=O)N(CCN2CCN(NCc3ccccc3OCc3ccccc3)CC2)c2ccc(Cl)cc21`: the IC50 was 13.8 µM on DNA gyrase subunit B and 3.8 µM in data set [2]. Moreover, in data set [1], the cytotoxicity at 72 h, 100 µM worked out at 26.8%.
For `COc1ccc2c(c1)C(=O)C(=O)N2CCN1CCN(NCc2ccccc2C(F)(F)F)CC1`, in that order: 61.5 µM, 39.1 µM and 10.5%.
As to `COc1ccc2c(c1)C(=O)C(=O)N2CCN1CCN(NCc2ccccc2OC)CC1`, the IC50 on DNA gyrase subunit B came to 81.2 µM; in data set [2] it was 48.6 µM. Further, in data set [1], the cytotoxicity at 72 h, 100 µM came to 15.4%.
Take `O=C1C(=O)N(CCN2CCN(NCc3cccc(Cl)c3Cl)CC2)c2ccc(Cl)cc21`: the 50% inhibitory concentration (IC50) at DNA gyrase subunit B turned out to be 43.2 µM; in data set [2], 25.6 µM. The cytotoxicity at 72 h, 100 µM in data set [1] amounted to 17.4%.
For the compound `COc1ccc2c(c1)C(=O)C(=O)N2CCN1CCN(NCc2cccc(Cl)c2Cl)CC1`, the 50% inhibitory concentration (IC50) on DNA gyrase subunit B was 73 µM; in data set [2], 48.6 µM. Also, in data set [1], the cytotoxicity at 72 h, 100 µM was determined as 23.9%.
Consider `COc1ccc2c(c1)C(=O)C(=O)N2CCN1CCN(NCc2ccccc2OCc2ccccc2)CC1`, for which the IC50 is 69.7 µM on DNA gyrase subunit B and 36.5 µM in data set [2]. Moreover, the cytotoxicity at 72 h, 100 µM in data set [1] is 16.3%.
With `O=C1C(=O)N(CCN2CCN(NCc3ccc(Cl)cc3Cl)CC2)c2ccccc21`, the results for the half-maximal inhibitory concentration (IC50) (on DNA gyrase subunit B; in data set [2]) were 84 µM and 40.3 µM, respectively. Further, the cytotoxicity at 72 h, 100 µM in data set [1] stood at 18.5%.
For the compound `O=C1C(=O)N(CCN2CCN(NCc3ccc(Cl)cc3Cl)CC2)c2ccc(Cl)cc21`, the values for the concentration for half-maximal inhibition (IC50) (at DNA gyrase subunit B; in data set [2]) were 68 µM and 50 µM, respectively. Moreover, the cytotoxicity at 72 h, 100 µM in data set [1] was 24%.
